# Literature values, collected in US20160194352A1, “AMORPHOUS FORMS OF DACLATASVIR DIHYDROCHLORIDE” (Dr.Reddy's Laboratories Ltd., priority 2015, published 2016).
# Test system: HCV
# Details: HCV infected patients, combination therapy
substance,measurement,value
alpha-interferon and ribavirin,"sustained efficacy, share of patients",40% of patients
